Measurements as given in US12521425B2, “Method of liver cancer treatment with safranal-based formulations” (priority 2019, dated 2026).
Read-outs that look alike come from different tables or passages of the source.

What was measured:
[1] = system: DEN-induced hepatic neoplasia; test: Serum ALT and AST in DEN-induced HCC model; type: in vivo, male Wistar rats; details: HCC rats, oral gavage 5 days a week, weeks 17-19, safranal 200 mg/kg, sorafenib 10 mg/kg, mean±SEM, n=6
Protocol: A modified version of the protocol described by DePeralta et al. (2016) and Schiffer et al. (2005) was used here to establish the hepatocarcinogenesis model.
On the first 15 weeks, the control PBS group was treated with 1×PBS, whereas the experimental groups were given an intraperitoneal injection (IP) of 50 mg/kg of diethylnitrosoamine (DEN, Sigma Aldrich), a widely used chemical for inducing cancer, once a week. DEN was diluted with 1×PBS. Following a one-week break (week 16), the next three weeks (weeks 17 to 19) of treatment commenced. All drugs were administrated by oral gavage. All doses were chosen according to literature (Alsaied et al., 2014; Karafakioglu et al., 2017). For the HCC+sorafenib group, the drug (Carbosynth Limited) was administered at a dose of 10 mg/kg, five days a week. For the HCC+safranal group, the drug (Sigma Aldrich) was administered at a dose of 200 mg/kg, five days a week. For the HCC+safranal+sorafenib group, the drugs were administered at a dose of 200 mg/kg safranal+10 mg/kg sorafenib, five days a week. Both safranal and sorafenib were diluted with 1×PBS and drops of Tween 80. […] After 24-hours from last treatment, the rats were euthanized by mild diethyl ether and dissected in equal conditions. Blood and whole liver were collected.
Rats were euthanized then blood was collected by decapitation and processed for later investigation. The blood was collected in collection tubes (BD Vacutainer) and serum was separated by centrifugation at 1200× g for 10 minutes. Serum was collected and flash frozen immediately then stored at −80° C. for further analysis.
Alanine Transaminase (ALT), and Aspartate Aminotransferase (AST) assays were performed using commercial kits (Abcam), according to the protocol provided. ALT and AST activities were measured spectrophotometrically using Epoch by BioTek.

HepG2 cells = test: SRB assay, cytotoxicity of topotecan ± safranal; type: cell-based; details: for IC50: Homo sapiens
Protocol: SRB assay. The effect of safranal on the cytotoxicity of the topoisomerase 1 inhibitor topotecan was tested using the sulforhodamine-B (SRB) assay as previously described. Exponentially growing HepG2 cells were seeded in 96-well plates at cell density of 1×10^4 cells per well. […] At the end of the incubation period, cells were fixed with 50% trichloroacetic acid (TCA) for 1 hours at 4° C. followed by washing, staining with SRB for 30 min followed by washing and solubilization of the stain with 10 mM Tris base (pH 10.5). The optical density (OD) at each well was measured spectrophotometrically at 564 nm with an ELISA microplate reader (Metertech. S960, USA). The IC50 values were calculated using sigmoidal concentration-response curve fitting models (Graph Pad, Prizm software).

Row | SMILES | ALT [1] [mU/ml] | AST [1] [mU/ml] | sensitization factor (HepG2 cells; HepG2, incubation with safranal for 24 or 48 h before topotecan) | IC50 (HepG2 cells; HepG2, HepG2, SRB, topotecan 48 h alone or after safranal 500 μM pre-incubation, read-out: IC50 of topotecan ± safranal) [nM] | IC50 (HepG2 cells; HepG2, HepG2, incubation with safranal for 24 or 48 h before topotecan, read-out: topotecan IC50) [nM] | IC50 (HepG2 cells; HepG2, HepG2, topotecan alone, read-out: topotecan IC50) [nM]
1 | CNC(=O)c1cc(Oc2ccc(NC(=O)Nc3ccc(Cl)c(C(F)(F)F)c3)cc2)ccn1 [sorafenib, reference compound] | 13.42 ± 1.12 | 11.14 ± 0.62 | – | – | – | –
2 | CC[C@@]1(O)C(=O)OCc2c1cc1n(c2=O)Cc2cc3c(CN(C)C)c(O)ccc3nc2-1 [Topotecan, topotecan] | – | – | 73 | 118 | 1.6 | 118
